Laboratory results published in patent US20090233921A1, “THERAPEUTIC CYCLOPENTANE DERIVATIVES” (ALLERGAN, INC., priority 2008, published 2009).

System: lashes and adjacent hairs of patients having glaucoma
Assay: Clinical observation of lashes and adjacent hairs in glaucoma patients treated in one eye
Type: in vivo, human
Source text: In the course of treating patients having glaucoma, treatment may only be appropriate in one eye. […] The lash appearance on the lids of the treated eyes would have appeared quite attractive if it represented a bilateral phenomenon. As a result of its asymmetric nature, the long lashes on one side could be construed as disturbing from a cosmetic standpoint. A systemic examination was preformed as a result of the asymmetric phenomenon. It soon became apparent that this altered appearance was not an isolated finding.
The changes in the lashes were apparent on gross inspection in several patients once attention was focused on the issue. In those with light colored hair and lashes, the differences were only seen easily with the aid of the high magnification and lighting capabilities of the slit lamp biomicroscope. In the course of glaucoma follow-up examination, attention is generally immediately focused on the eye itself. As a result of the high power magnification needed only one eye is seen at a time and the eye is seen at a high enough power that the lashes are not in focus. At these higher powers, any lash asymmetry between the two eyes is not likely to be noticed except by careful systematic comparison of the lashes and adjacent hairs of the eyelids of the two eyes. […]

`CCNC(=O)CCC/C=C\C[C@@H]1[C@@H](/C=C/[C@@H](O)CCc2ccccc2)[C@H](O)C[C@@H]1O` [bimatoprost] was tested, and the “lash appearance, treated eye versus non-treated eye” value (a patient treated in one eye) was “longer, thicker, and fuller in the treated eye than in the non-treated eye” and the “differences in lashes and adjacent hairs of the treated side” value (all patients taking the drug on a unilateral basis for longer than 6 months) was “Definite differences could be identified to varying degrees”.
